Reference: patent publication US11058700B2, “Macrocyclic lactones and uses thereof as modulators of purinergic receptors” (City of Hope, priority 2015, dated 2021)

How the values were obtained:
4T1.2 cells [1] = assay: Colony assay, 4T1.2 cells seeded at 100 cells/well, colonies counted after a week; assay type: cell-based, mouse; conditions: extended exposure time (Ivermectin during the entire duration of the assay)
Protocol: (§1) FIGS. 1A-1H. Ivermectin kills breast cancer cells through a mixed apoptotic and necrotic mechanism. FIG. 1A: Mouse (4T1.2) and human (MDA-MB-231) TNBC cells manifest similar sensitivity to Ivermectin. Viability of cells treated with various doses of Ivermectin for 24 h. FIG. 1B: Extended exposure time reduces IC50 values to as low as 2 μM. 4T1.2 cells were seeded at 100 cells/well and individual colonies were counted after a week. Cancer cells were exposed to Ivermectin during the initial 24 h or during the entire duration of the assay. FIG. 1C: MDA-MB-231 breast cancer cells manifest higher sensitivity to Ivermectin compared to normal non-transformed human foreskin fibroblasts (HFFs). FIG. 1D: Flow cytometry analysis showing that cell death proceeds through two distinct pathways: a directly necrotic 7AAD-single positive or Annexin V/PS-single positive apoptotic pathway. FIG. 1E: Kinetics of necrotic versus apoptotic killing of 4T1.2 breast cancer cells. FIG. 1F: Ivermectin-induced cell death can be reversed by inhibition of various controlled cell death pathways. 4T1.2 cells were treated for 4 h with 32 μM Ivermectin in the presence of μM concentrations of Z-vad-fmk, Necrostatin-1, Digoxin, or VX-765, as indicated. FIG. 1G: Activation of Caspase-1, Caspase-3 and cleavage of PARP in 4T1.2 and MDA-MB-231 cells treated with 32 μM for 4 h. […]

[2] = test system: Caspase-1, Caspase-3 and PARP in 4T1.2 and MDA-MB-231 cells; assay: Caspase activation and PARP cleavage; assay type: cell-based, mouse, human; conditions: 32 μM, 4 h
Protocol: as §1, with “indicated.” for “indicated. FIG. 1G: Activation of Caspase-1, Caspase-3 and cleavage of PARP in 4T1.2 and MDA-MB-231 cells treated with 32 μM for 4 h.”
Caspase activation and PARP cleavage. […] PARP cleavage was analyzed after fixing the cells (eBioscience, Cat #00-5123 and Cat #00-5223) for 30 min at RT. […]

4T1.2 cells [3] = assay: Mitochondrial membrane potential (JC-1); assay type: cell-based, mouse
Protocol: FIGS. 4A-4D. Excessive Ca^2+/CaMKII signaling and MPTP contribute to cell death. FIG. 4A: Kinetics of cytosolic Ca^2+ increase in 4T1.2 cells treated with Ivermectin. […] 4T1.2 cells were treated for 4 h with 32 μM Ivermectin in the presence of the P2X7/CaMKII dual inhibitor KN-62 or the CaMKII-specific inhibitor KN-63, at μM concentrations as indicated. FIG. 4C: Flow cytometry analysis of JC-1 loaded 4T1.2 cells showing that high doses of Ivermectin result in a sudden mitochondrial de-polarization, while lower doses cause similar effects but after transient hyper-polarization. FIG. 4D: MPTP contributes to Ivermectin. 4T1.2 cells were treated for 4 h with 32 μM Ivermectin in the presence of the MPTP inhibitor Cyclosporin A at μM concentrations as indicated. Asterisk (*) indicates p<0.05 relative to untreated or Ivermectin alone controls, respectively.
Mitochondrial membrane potential. Cancer cells in suspension were washed with PBS and loaded with 2 μM JC-1 (Life Technologies, T3168) for 15 min at room temperature in the dark. Cells were washed twice with PBS and treated with various doses of Ivermectin in R10 medium. Cells were incubated for 1 h/4 h in 5 ml FACS tubes at 37° C. and 5% CO2. After 1h/4h of treatment cells were analyzed by flow cytometry. Mitochondrial polarization was evaluated by measuring the corresponding changes in fluorescence in the FITC and PE channels. […]

breast cancer cells = assay: Induction of autophagy (GFP-LC3 puncta, Western blot LC3 / p62); assay type: cell-based, mouse, human
Protocol: FIGS. 6A-6E. Ivermectin induces autophagy. FIG. 6A: Ivermectin induces autophagy in breast cancer cells. MDA-MB-231 GFL-LC3 cells were treated with different doses of Ivermectin for 24 h and formation of green fluorescent puncta was evaluated by confocal fluorescence microscopy. FIG. 6B: Western blot confirming the induction of autophagy in both murine and human breast cancer cells, as evidenced by LC3 lipidation and autophagic degradation of p62(SQSTM1). […] MDA-MB-231 cells (triplicates) were treated with different doses of Ivermectin for up to 24h and surface stained with antibody-specific for the human M6P receptor versus isotype control. Similarly, 4T1.2 and MB231 cells were treated with different doses of Ivermectin for 4-24 h, and were stained with an antibody specific for both human and mouse CRT versus isotype control. Mean fluorescent intensity (MFI) values and ratios versus isotype control were calculated after gating on live/membrane-intact cells. FIG. 6D: Ivermectin (32 μM) induces release of HMGB1 from murine and human TNBC cells (triplicates). […] Asterisk (*) indicates p<0.05 relative to untreated or Ivermectin alone controls, respectively.
Western Blotting. […] Activation and cleavage of caspases was evaluated using antibodies specific for caspase-1 (NOVUS, NBP1-45433) and caspase-3 (Cell Signaling, 9665). […]

CC[C@H](C)[C@H]1O[C@]2(CC[C@@H]1C)C[C@@H]1C[C@@H](C/C=C(\C)[C@@H](O[C@H]3C[C@H](OC)[C@@H](O[C@H]4C[C@H](OC)[C@@H](O)[C@H](C)O4)[C@H](C)O3)[C@@H](C)/C=C/C=C3\CO[C@@H]4[C@H](O)C(C)=C[C@@H](C(=O)O1)[C@]34O)O2 [Ivermectin]
IC50 (4T1.2 cells [1]): ≥ 2000 nM
PARP cleavage [2]: rapid cleavage of PARP
caspase activation [2]: potent caspase-1 and caspase-3 activation
mitochondrial polarization (4T1.2 cells [3]; high doses of Ivermectin, massive cell death): sudden depolarization of mitochondria
mitochondrial polarization (4T1.2 cells [3]; lower doses of Ivermectin): mitochondrial hyperpolarization
induction of autophagy (breast cancer cells): potent inducer of autophagy
